The test system of assay [1] is peripheral blood mononuclear cells derived from a cancer patient. The experiment in a line: CTL induction by peptide from autologous PBMC of cancer patient, IFN-γ production on recognition of target cells (Example 5). In kind it is cell-based, human. Particulars: PBMC stimulated with 10 μM peptide.
Assay [2] has the same test system. The description is as above. Format: cell-based, human. Conditions: for Recognition of tumor cells by PBMC stimulated in vitro with peptide (IFN-γ production): SW620, CA9-22 and Panc-1 HLA-A2+ tumor cells, result in words; for IFN-γ production from peripheral blood mononuclear cells in recognition of target cells: PBMC stimulated with 10 μM peptide. From the text: Among the peptides that were able to enhance IFN-γ production from the OK-CTLp or OK-CTL clone in Example 4, those from P1 to P19 were examined for their ability to induce CTL from peripheral blood mononuclear cells derived from a cancer patient. The method for inducing CTL by a peptide was according to the well-known method (J. Exp. Med., 187:277-288, 1998; Cancer Res., 59:4056-4063, 1999.) Specifically, autologous peripheral blood mononuclear cells (PBMC) derived from a cancer patient, from whom OK-CTLp was obtained, were incubated together with the peptide (10 μM.) The cells were re-stimulated at day 10 and 14 after the start of culturing, using autologous PBMCs as an antigen presenting cell (APC) which were pulsed with 10 μM of the same peptide for 2 h and exposed to irradiation (30 gray.) At day 21 after the start of culturing, the cells were collected to test for surface phenotype. In addition, the cells were examined for the recognition of various target cells, using IFN-γ production measured by ELISA when they were cultured together with the target cells as an indicator. As a target cells, SW620 cell, CA9-22 cell, and Panc-1 cell, which are the HLA-A2^+ tumor cells, were used.

Data on nine sequences can be found in patent publication US7524930B2, “Tumor antigen” (Green Peptide Co., Ltd, priority 2003, dated 2009).

For “LLQDWHVIL (Designed peptide having an ability to activate HLA-A2 restricted Cytotoxic T lymphocytes) [Peptide P4, Gene 1 (UBE2V) 201-209]”, the “IFN-γ production from peripheral blood mononuclear cells in recognition of target cells” value (“IFN-γ production … of target cells” for short) came out at 0 pg/mL in assay [1] (target COLO320 (HLA-A24/24)); 0 pg/mL in assay [1] (target QG56 (HLA-A26/26)); 0 pg/mL in assay [1] (target RERF-LC-MS (HLA-A11/11)); 0 pg/mL in assay [2] (target CA9-22 (HLA-A0207/24)); 0 pg/mL in assay [2] (target Panc-1 (HLA-A0201/11)); 60 pg/mL in assay [2] (target SW620 (HLA-A0201/24)). Further, the “Recognition of tumor cells by PBMC stimulated in vitro with peptide (IFN-γ production)” value (“Recognition of tumor cells” for short) in assay [2] is “induced CTL recognizing any one of the HLA-A2^+ tumor cells”.
Turning to “ASLDSDPWV (Designed peptide having an ability to activate HLA-A2 restricted Cytotoxic T lymphocytes) [Peptide P10, Gene 3 (WHSC2) 103-111]”, the “IFN-γ production … of target cells” value stood at 0 pg/mL in assay [1] (target COLO320 (HLA-A24/24)); 0 pg/mL in assay [1] (target QG56 (HLA-A26/26)); 0 pg/mL in assay [1] (target RERF-LC-MS (HLA-A11/11)); 130 pg/mL in assay [2] (target CA9-22 (HLA-A0207/24)); 163 pg/mL in assay [2] (target Panc-1 (HLA-A0201/11)); 108 pg/mL in assay [2] (target SW620 (HLA-A0201/24)). In addition, the “Recognition of tumor cells” value in assay [2] was “produced IFN-γ in a significant amount”.
Turning to “MLPLECQYL (Designed peptide having an ability to activate HLA-A2 restricted Cytotoxic T lymphocytes) [Peptide P12, Gene 3 (WHSC2) 157-165]”, the “IFN-γ production … of target cells” value was 40 pg/mL in assay [1] (target COLO320 (HLA-A24/24)); 0 pg/mL in assay [1] (target QG56 (HLA-A26/26)); 0 pg/mL in assay [1] (target RERF-LC-MS (HLA-A11/11)); 0 pg/mL in assay [2] (target CA9-22 (HLA-A0207/24)); 197 pg/mL in assay [2] (target Panc-1 (HLA-A0201/11)); 46 pg/mL in assay [2] (target SW620 (HLA-A0201/24)). Also, in assay [2], the “Recognition of tumor cells” value is given as “induced CTL recognizing any one of the HLA-A2^+ tumor cells”.
In the case of “RIQEWCSVI (RLQEWCSVI; Designed peptide having an ability to activate HLA-A2 restricted Cytotoxic T lymphocytes) [Peptide P1, Gene 1 (UBE2V) 43-51]”, the “IFN-γ production … of target cells” value was 50 pg/mL in assay [1] (target COLO320 (HLA-A24/24)); 0 pg/mL in assay [1] (target QG56 (HLA-A26/26)); 26 pg/mL in assay [1] (target RERF-LC-MS (HLA-A11/11)); 81 pg/mL in assay [2] (target CA9-22 (HLA-A0207/24)); 492 pg/mL in assay [2] (target Panc-1 (HLA-A0201/11)); 235 pg/mL in assay [2] (target SW620 (HLA-A0201/24)). The “Recognition of tumor cells” value in assay [2] is “produced IFN-γ in a significant amount”.
Regarding DLLSHAFFA [Peptide P18], the “IFN-γ production … of target cells” value in assay [1] (target COLO320 (HLA-A24/24)) is 0 pg/mL; in assay [1] (target QG56 (HLA-A26/26)) it was 29 pg/mL; in assay [1] (target RERF-LC-MS (HLA-A11/11)), 0 pg/mL; in assay [2] (target CA9-22 (HLA-A0207/24)), 70 pg/mL; in assay [2] (target Panc-1 (HLA-A0201/11)), >1000 pg/mL; in assay [2] (target SW620 (HLA-A0201/24)), >1000 pg/mL. The “Recognition of tumor cells” value in assay [2] is reported as “produced IFN-γ in a significant amount”.
As for “NVLHFFNAPL (Designed peptide having an ability to activate HLA-A2 restricted Cytotoxic T lymphocytes) [Peptide P9, Gene 2 (HNRPL) 501-510]”, the “IFN-γ production … of target cells” value turned out to be 0 pg/mL in assay [1] (target COLO320 (HLA-A24/24)); 0 pg/mL in assay [1] (target QG56 (HLA-A26/26)); 27 pg/mL in assay [1] (target RERF-LC-MS (HLA-A11/11)); 98 pg/mL in assay [2] (target CA9-22 (HLA-A0207/24)); 339 pg/mL in assay [2] (target Panc-1 (HLA-A0201/11)); 194 pg/mL in assay [2] (target SW620 (HLA-A0201/24)). The “Recognition of tumor cells” value in assay [2] is “produced IFN-γ in a significant amount”.
Regarding “QILKGLLFL (Designed peptide having an ability to activate HLA-A2 restricted Cytotoxic T lymphocytes) [Peptide P16, Gene 5 (ppMAPkkk) 290-298]”, the “IFN-γ production … of target cells” value in assay [1] (target COLO320 (HLA-A24/24)) was determined as 0 pg/mL; in assay [1] (target QG56 (HLA-A26/26)), 0 pg/mL; in assay [1] (target RERF-LC-MS (HLA-A11/11)), 0 pg/mL; in assay [2] (target CA9-22 (HLA-A0207/24)), 147 pg/mL; in assay [2] (target Panc-1 (HLA-A0201/11)), 113 pg/mL; in assay [2] (target SW620 (HLA-A0201/24)) it was 0 pg/mL. In assay [2], the “Recognition of tumor cells” value is “induced CTL recognizing any one of the HLA-A2^+ tumor cells”.
As to “ILGELREKV (Designed peptide having an ability to activate HLA-A2 restricted Cytotoxic T lymphocytes) [Peptide P11, Gene 3 (WHSC2) 141-149]”, the “IFN-γ production … of target cells” value is 0 pg/mL in assay [1] (target COLO320 (HLA-A24/24)); 0 pg/mL in assay [1] (target QG56 (HLA-A26/26)); 0 pg/mL in assay [1] (target RERF-LC-MS (HLA-A11/11)); 62 pg/mL in assay [2] (target CA9-22 (HLA-A0207/24)); >1000 pg/mL in assay [2] (target Panc-1 (HLA-A0201/11)); 893 pg/mL in assay [2] (target SW620 (HLA-A0201/24)). Besides, the “Recognition of tumor cells” value in assay [2] is “produced IFN-γ in a significant amount”.
For the sequence “TLLRKERGV (Designed peptide having an ability to activate HLA-A2 restricted Cytotoxic T lymphocytes) [Peptide P13, Gene 3 (WHSC2) 267-275]”, the “IFN-γ production … of target cells” value in assay [1] (target COLO320 (HLA-A24/24)) was 0 pg/mL; in assay [1] (target QG56 (HLA-A26/26)) it was 0 pg/mL; in assay [1] (target RERF-LC-MS (HLA-A11/11)), 15 pg/mL; in assay [2] (target CA9-22 (HLA-A0207/24)) it was 95 pg/mL; in assay [2] (target Panc-1 (HLA-A0201/11)), 115 pg/mL; in assay [2] (target SW620 (HLA-A0201/24)), 151 pg/mL. Also, the “Recognition of tumor cells” value in assay [2] is reported as “produced IFN-γ in a significant amount”.
